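Test compounds were applied to cells in 96-well plates for 48 hours at 5 doses. At the GI50, growth is halved.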 Active and inactive are the calls of the source. No stated cut-off is given here; in the data, active = GI50 up to about 1.1 µM and inactive = higher.

Common to all, as to assay: growth of human tumour cells (NCI), 48 h
For test [1], the system named is 786-0.
The subject of test [2] is BT-549.
The test system of test [3] is HCT-116.
Test [4] concerns HCT-15.
Test [5] deals with HOP-92.
Test [6] has as its system IGROV-1.
Test [7] relates to MDA-MB-435.
For test [8], the system named is MDA-N.
The test system of test [9] is NCI-H23.
For test [10], the system named is NCI-H460.
For test [11], the system named is OVCAR-4.
In test [12] the test system is RPMI-8226.
In test [13] the test system is SK-OV-3.
In test [14] the test system is T47D.
Test [15] deals with TK-10.
Test [16] concerns UO-31.
In test [17] the test system is SF-268.
The subject of test [18] is U-251.
The test system of test [19] is SR.

On to `O=c1[nH]c2ccccc2n1CCCN1CCC(n2c(=O)[nH]c3cc(Cl)ccc32)CC1` [DOMPERIDONE], for which the GI50 in test [1] is 14.4 µM (inactive); in test [2], 18 µM (inactive); in [3] it was 16.8 µM (inactive); in test [4], 18.7 µM; in [5] it was 22.2 µM (inactive); in test [6] it was 19.2 µM (inactive). Besides, the GI50 in [7] is 16.2 µM (inactive); in test [8], 15.8 µM (inactive); in test [9] it was 17.3 µM (inactive); in test [10], 17.4 µM (inactive); in test [11], 17.2 µM (inactive); in test [12], 20.1 µM (inactive). The GI50 in test [13] is 23.7 µM (inactive); in [14], 16.3 µM (inactive); in test [15], 20.2 µM (inactive); in test [16], 4.7 µM (inactive).

Take `NC(=S)NS(=O)(=O)c1ccc(Cl)cc1Cl`: the GI50 in [1] was > 100 µM (inactive); in test [2], > 100 µM (inactive); in [3], > 100 µM (inactive); in test [4], greater than 100 µM; in test [5] it was > 100 µM (inactive); in test [6] it was > 100 µM (inactive). For the same molecule, the GI50 in test [7], in test [8], in test [9], in test [10], in test [11] and in test [12] was > 100 µM (inactive) each time. Moreover, the GI50 in test [17], in test [13], in test [14], in test [15], in test [18] and in test [16] was > 100 µM (inactive) each time.

As to `CCOC(=O)CCC(NC(=O)c1ccc(Nc2nc3cc(C(F)(F)F)ccc3nc2C(=O)OCC)cc1)C(=O)OCC` (stereo not drawn), the GI50 in [1] was 2.44 µM (inactive); in [2], 16.3 µM (inactive); in test [3] it was 6.75 µM (inactive); in test [4] it was 29.9 µM; in test [5] it was 0.975 µM (active); in [6], 17.1 µM (inactive). Also, the GI50 in test [7] was 6.87 µM (inactive); in test [8], 6.9 µM (inactive); in test [9] it was 16 µM (inactive); in test [10], 18 µM (inactive); in [11], 3.54 µM (inactive); in test [12] it was 24.9 µM (inactive). The GI50 in test [17] was 14.1 µM (inactive); in [19] it was > 100 µM (inactive); in [14], 6.25 µM (inactive); in [18], 11.3 µM (inactive); in [16], 11.6 µM (inactive).

For the molecule `CN1CC(c2ccccc2)N(CCCCN2CC(c3ccccc3)N(C)CC2c2ccccc2)CC1c1ccccc1` (stereo not drawn), the GI50 is 73.5 µM (inactive) in test [1]; 37 µM (inactive) in [2]; 11.9 µM (inactive) in [3]; 29.2 µM in test [4]; 26.8 µM (inactive) in [5]; 45 µM (inactive) in test [6]. The GI50 was 36.1 µM (inactive) in test [7]; 32.1 µM (inactive) in test [8]; 18.1 µM (inactive) in test [10]; 37.7 µM (inactive) in test [11]; > 100 µM (inactive) in test [17]; > 100 µM (inactive) in [13]. Further, the GI50 in test [19] was 68.5 µM (inactive); in test [15], 54.1 µM (inactive); in [16] it was 57.9 µM (inactive).

Regarding `C[C@H]1C(=O)O[C@@H]2CCN3CC=C(COC(=O)[C@](C)(O)[C@@]1(C)O)[C@H]23`, the GI50 in [1] is > 100 µM (inactive); in test [2], > 100 µM (inactive); in test [3], > 100 µM (inactive); in test [4], greater than 100 µM; in test [5], > 100 µM (inactive); in [6], > 100 µM (inactive). Further, the GI50 was > 100 µM (inactive) in test [7]; > 100 µM (inactive) in [8]; > 100 µM (inactive) in test [9]; > 10 µM (inactive) in test [10]; > 100 µM (inactive) in test [11]; > 100 µM (inactive) in test [12]. Also, the GI50 in test [17], in test [13], in test [14], in [15], in [18] and in test [16] was > 100 µM (inactive) in each case.

As for `COc1ccc(-c2cc(O)c3c(C)cc(C)nc3n2)cc1`, the GI50 in test [2] is 26.4 µM (inactive); in [4] it was 24.4 µM; in test [5] it was 26.9 µM (inactive); in test [6] it was 23.3 µM (inactive); in [9], 28.6 µM (inactive); in test [11], 26.4 µM (inactive). Besides, the GI50 was 18 µM (inactive) in test [12]; 53 µM (inactive) in test [17]; > 100 µM (inactive) in test [13]; 28.2 µM (inactive) in test [14]; 25.1 µM (inactive) in test [15]; 38 µM (inactive) in test [16].

For `O=C1Nc2ccccc2/C1=N/NC(=S)Nc1ccccc1Cl`, the GI50 in [1] is 1.77 µM (inactive); in [3], 0.729 µM (active); in test [4] it was 2.31 µM; in test [5] it was 3.7 µM (inactive); in [6], 3.33 µM (inactive); in test [7] it was 10.8 µM (inactive). In addition, the GI50 in test [8] is 20.6 µM (inactive); in [9], 8.71 µM (inactive); in test [10] it was 0.735 µM (active); in [11], 5.13 µM (inactive); in test [17] it was 0.706 µM (active); in test [13], 10.7 µM (inactive). Besides, the GI50 is < 0.01 µM (active) in [19]; 11.6 µM (inactive) in test [14]; 2.1 µM (inactive) in test [15]; 3.56 µM (inactive) in test [18]; 3.32 µM (inactive) in test [16].

In the case of `O=C1c2ccccc2C(=O)c2c(OCCOCCO)cccc21`, the GI50 in [1] was > 100 µM (inactive); in [2], > 100 µM (inactive); in test [3], 45.6 µM (inactive); in [4] it was 63.7 µM; in test [5], 12.6 µM (inactive); in test [6], 45.5 µM (inactive). Besides, the GI50 in [7] is > 100 µM (inactive); in [9], > 100 µM (inactive); in test [10], 54.7 µM (inactive); in test [11], 72.9 µM (inactive); in test [17], 44.9 µM (inactive); in test [13] it was > 100 µM (inactive). The GI50 in [19] was 66.7 µM (inactive); in [14], 49.4 µM (inactive); in [15] it was 53.6 µM (inactive); in test [18], > 100 µM (inactive); in [16] it was 38.9 µM (inactive).

In the case of `COCO[C@@H]1C[C@H]2C(O)Nc3ccccc3C(=O)N2C1` (stereo partly drawn), the GI50 in test [4] is greater than 100 µM; in test [5] it was > 100 µM (inactive); in test [6], > 100 µM (inactive); in test [7], > 100 µM (inactive); in test [8], > 100 µM (inactive); in test [9], > 100 µM (inactive). Moreover, the GI50 in test [10], in [11], in test [12], in [17], in [13] and in test [19] was > 100 µM (inactive) in each case. Further, the GI50 in [14], in test [15], in test [18] and in test [16] was > 100 µM (inactive) each time.

As for `C=C(Nc1ccc([N+](=O)[O-])cc1[N+](=O)[O-])c1c/c(=N\NC(N)=S)c2ccccc2o1`, the GI50 in test [1] was 66.8 µM (inactive); in test [2], > 100 µM (inactive); in [3], 33.7 µM (inactive); in [4], 51.9 µM; in test [5], 29 µM (inactive); in [6] it was 36.1 µM (inactive). Further, the GI50 in test [7] is 81.5 µM (inactive); in [8], > 100 µM (inactive); in test [9] it was 81.8 µM (inactive); in [10], > 100 µM (inactive); in test [11], 49 µM (inactive); in test [17], > 100 µM (inactive). Further, the GI50 is 35.7 µM (inactive) in [13]; 16.9 µM (inactive) in test [19]; > 100 µM (inactive) in test [15]; 61.1 µM (inactive) in test [18]; 29.1 µM (inactive) in test [16].

In the case of `COc1ccc(OC)c2c1C(=O)C(Cl)=C(N1CCN(CCOCCO)CC1)C2=O`, the GI50 in test [1] was 5.78 µM (inactive); in test [2], 14.8 µM (inactive); in test [3] it was 4.66 µM (inactive); in test [4] it was 7.38 µM; in test [5], 17.7 µM (inactive); in test [6] it was 7.31 µM (inactive). The GI50 is 14.4 µM (inactive) in test [7]; 7.6 µM (inactive) in [9]; 18.8 µM (inactive) in [10]; 17.9 µM (inactive) in test [11]; 2.94 µM (inactive) in [12]; 13.6 µM (inactive) in test [17]. In addition, the GI50 in test [13] was 19.6 µM (inactive); in test [19], 3.21 µM (inactive); in [14], 4.65 µM (inactive); in [15], 19 µM (inactive); in test [18], 21.4 µM (inactive); in test [16] it was 16.4 µM (inactive).

For the molecule `C/C1=C\[C@@H](C)C[C@@H](C)OC(=O)[C@@H](C)NC(=O)[C@H](Cc2ccc(O)c(Br)c2)N(C)C(=O)CNC(=O)[C@H](C)C1`, the GI50 in test [1] was < 0.0136 µM (active); in test [2] it was 0.0641 µM (active); in [3] it was < 0.01 µM (active); in test [4], less than 0.01 µM; in [5], < 0.01 µM (active); in test [6], < 0.01 µM (active). Besides, the GI50 is < 0.01 µM (active) in [7]; < 0.0304 µM (active) in test [8]; < 0.01 µM (active) in test [10]; < 0.01 µM (active) in test [11]; < 0.01 µM (active) in test [12]; < 0.0193 µM (active) in test [17]. The GI50 in test [13] was < 0.01 µM (active); in test [14], 0.126 µM (active); in [15], < 0.0157 µM (active); in [18] it was < 0.01 µM (active); in [16], 0.026 µM (active).

Source of the values: ChEMBL document CHEMBL1201862, “PubChem BioAssay data set” (2004).
